#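 Here, GI50 denotes the concentration required for 50% inhibition of growth. TGI: concentration producing complete growth inhibition.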
# Legend:
# Experiment in all cases: DTP human tumour cell line panel, 384-well format
# [1] = system: NCI-H522 lung
# [2] = system: MDA-MB-468 breast
# [3] = system: MDA-MB-435 melanoma
# [4] = system: OVCAR-4 ovarian
# [5] = system: 786-0 renal
# [6] = system: HCT-116 colon
# [7] = system: IGROV1 ovarian
# [8] = system: SN12C renal
# [9] = system: NCI-H226 lung
# [10] = system: HS 578T breast
# [11] = system: SNB-19 CNS
# [12] = system: CCRF-CEM leukemia
# [13] = system: NCI-H322M lung
# [14] = system: HOP-92 NSCLC
# [15] = system: HCC-2998 colon
# [16] = system: EKVX NSCLC
# [17] = system: SK-OV-3 ovarian
# [18] = system: NCI-H460 NSCLC
# [19] = system: SR leukemia
# [20] = system: T-47D breast
# [21] = system: MALME-3M melanoma
# [22] = system: NCI/ADR-RES ovarian
# [23] = system: SF-295 CNS
# [24] = system: SK-MEL-28 melanoma
# [25] = system: OVCAR-8 ovarian
# [26] = system: NCI-H23 lung
# [27] = system: KM12 colon
# [28] = system: SW-620 colon
# [29] = system: COLO 205 colon
# [30] = system: DU-145 prostate
# [31] = system: OVCAR-5 ovarian
# [32] = system: HL-60(TB) leukemia
# [33] = system: SNB-75 CNS
# [34] = system: LOX IMVI melanoma
# [35] = system: A498 renal
# [36] = system: UACC-257 melanoma
# [37] = system: SF-268 CNS
# [38] = system: TK-10 renal
# [39] = system: ACHN renal
# [40] = system: HOP-62 NSCLC
# [41] = system: CAKI-1 renal
# [42] = system: MCF7 breast
# [43] = system: RPMI-8226 leukemia
# [44] = system: RXF 393 renal
# [45] = system: MOLT-4 leukemia
# [46] = system: HCT-15 colon
# [47] = system: SF-539 CNS
structure (smiles),measurement,setting,value
Cn1cc(CNCC2CCN(c3ncc(C(=O)NO)cn3)CC2)c2ccccc21,GI50,[1],< 0.01 µM
same,TGI,[1],0.0208 µM
same,GI50,[2],< 0.01 µM
same,TGI,[2],< 0.01 µM
same,GI50,[3],0.0121 µM
same,TGI,[3],0.0297 µM
same,GI50,[4],0.0189 µM
same,TGI,[4],0.0466 µM
same,GI50,[5],0.0228 µM
same,TGI,[5],0.12 µM
same,GI50,[6],< 0.01 µM
same,TGI,[6],0.0157 µM
same,GI50,[7],0.0102 µM
same,TGI,[7],0.0237 µM
same,GI50,[8],0.0141 µM
same,TGI,[8],0.0297 µM
same,GI50,[9],0.0319 µM
same,TGI,[9],0.115 µM
same,GI50,[10],< 0.0104 µM
same,TGI,[10],0.0224 µM
same,GI50,[11],0.0173 µM
same,TGI,[11],0.0457 µM
same,GI50,[12],< 0.01 µM
same,TGI,[12],< 0.0108 µM
same,GI50,[13],0.0123 µM
same,TGI,[13],0.0405 µM
same,GI50,[14],< 0.0122 µM
same,TGI,[14],0.0317 µM
same,GI50,[15],< 0.0111 µM
same,TGI,[15],0.0248 µM
same,GI50,[16],0.0304 µM
same,TGI,[16],0.303 µM
same,GI50,[17],0.0155 µM
same,TGI,[17],0.0329 µM
same,GI50,[18],< 0.0111 µM
same,TGI,[18],0.0371 µM
same,GI50,[19],< 0.01 µM
same,TGI,[19],< 0.01 µM
same,GI50,[20],< 0.01 µM
same,TGI,[20],0.0155 µM
same,GI50,[21],< 0.01 µM
same,TGI,[21],< 0.0145 µM
same,GI50,[22],0.0949 µM
same,TGI,[22],0.329 µM
same,GI50,[23],0.0161 µM
same,TGI,[23],0.0544 µM
same,GI50,[24],< 0.011 µM
same,TGI,[24],0.0276 µM
same,GI50,[25],< 0.01 µM
same,TGI,[25],0.0213 µM
same,GI50,[26],0.0131 µM
same,TGI,[26],0.0421 µM
same,GI50,[27],0.0167 µM
same,TGI,[27],0.0636 µM
same,GI50,[28],0.0129 µM
same,TGI,[28],0.0262 µM
same,GI50,[29],< 0.01 µM
same,TGI,[29],0.0183 µM
same,GI50,[30],< 0.01 µM
same,TGI,[30],0.0229 µM
same,GI50,[31],< 0.01 µM
same,TGI,[31],0.0236 µM
same,GI50,[32],< 0.01 µM
same,TGI,[32],< 0.01 µM
same,GI50,[33],0.0101 µM
same,TGI,[33],0.0461 µM
same,GI50,[34],0.0121 µM
same,TGI,[34],0.0249 µM
same,GI50,[35],0.0128 µM
same,TGI,[35],0.0293 µM
same,GI50,[36],< 0.01 µM
same,TGI,[36],0.0236 µM
same,GI50,[37],< 0.0104 µM
same,TGI,[37],0.0244 µM
same,GI50,[38],0.0122 µM
same,TGI,[38],0.0383 µM
same,GI50,[39],0.0143 µM
same,TGI,[39],0.0349 µM
same,GI50,[40],< 0.0118 µM
same,TGI,[40],0.0621 µM
same,GI50,[41],< 0.0112 µM
same,TGI,[41],0.026 µM
same,GI50,[42],< 0.01 µM
same,TGI,[42],0.0209 µM
same,GI50,[43],< 0.01 µM
same,TGI,[43],< 0.01 µM
same,GI50,[44],0.0162 µM
same,TGI,[44],0.0355 µM
same,GI50,[45],< 0.01 µM
same,TGI,[45],< 0.01 µM
same,GI50,[46],0.0494 µM
same,TGI,[46],0.3 µM
same,GI50,[47],0.0139 µM
same,TGI,[47],0.053 µM

# — PubChem BioAssay (NCI)
